As usually defined, the EC50 is the concentration giving half of the maximal effect. A high value points to lower potency in that assay.

Molecules are shown by their SMILES.

In this test the target is T1, human S1P1 receptor (Homo sapiens, UniProt P21453).
T1 construct: expressed in transfected cells; membranes used
T1 sequence (P21453 whole entry): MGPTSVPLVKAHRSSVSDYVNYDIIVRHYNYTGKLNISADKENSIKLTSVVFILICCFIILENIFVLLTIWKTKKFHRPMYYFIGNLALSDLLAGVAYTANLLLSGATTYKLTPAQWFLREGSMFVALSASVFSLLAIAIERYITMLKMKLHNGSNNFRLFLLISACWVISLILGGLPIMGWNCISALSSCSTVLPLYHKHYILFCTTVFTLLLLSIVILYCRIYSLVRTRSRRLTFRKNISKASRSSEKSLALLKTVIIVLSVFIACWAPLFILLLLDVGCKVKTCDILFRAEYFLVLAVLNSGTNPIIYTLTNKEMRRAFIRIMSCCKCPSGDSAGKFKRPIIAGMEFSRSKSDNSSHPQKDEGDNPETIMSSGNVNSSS
Briefly: GTP γ35S binding assay for S1P1 activity. Conditions: activity potency from GTP γ35S binding; membranes, test compounds 0.08 to 5,000 nM, 30 min at 25° C. It is filed as biochemical. On the procedure: Compounds were synthesized and tested for S1P1 activity using the GTP γ^35S binding assay. These compounds may be assessed for their ability to activate or block activation of the human S1P1 receptor in cells stably expressing the S1P1 receptor.
GTP γ^35S binding was measured in the medium containing (mM) HEPES 25, pH 7.4, MgCl2 10, NaCl 100, dithitothreitol 0.5, digitonin 0.003%, 0.2 nM GTP γ^35S, and 5 μg membrane protein in a volume of 150 μl. Test compounds were included in the concentration range from 0.08 to 5,000 nM unless indicated otherwise. Membranes were incubated with 100 μM 5′-adenylylimmidodiphosphate for 30 min, and subsequently with 10 μM GDP for 10 min on ice. Drug solutions and membrane were mixed, and then reactions were initiated by adding GTP γ^35S and continued for 30 min at 25° C. Reaction mixtures were filtered over Whatman GF/B filters under vacuum, and washed three times with 3 mL of ice-cold buffer (HEPES 25, pH7.4, MgCl2 10 and NaCl 100). Filters were dried and mixed with scintillant, and counted for ^35S activity using a β-counter. Agonist-induced GTP γ^35S binding was obtained by subtracting that in the absence of agonist. Binding data were analyzed using a non-linear regression method. In case of antagonist assay, the reaction mixture contained 10 nM S1P in the presence of test antagonist at concentrations ranging from 0.08 to 5000 nM.
In general terms: Binding of GTPγS marks nucleotide exchange on a G protein.
In the case of `CNc1ncccc1-c1noc(C(Nc2ccc(C)c(C)c2)c2cccc(Cl)c2)n1` (stereo not shown) [Compound 1, 3-(5-((3-chlorophenyl)((3,4-dimethylphenyl)amino)methyl)-1,2,4-oxadiazol-3-yl)-N-methylpyridin-2-amine], the midpoint of the response, the EC50, lay at 0.336 µM. As to `CNc1ncccc1-c1noc(C(Sc2ccc(C)c(C)c2)c2cccc(Br)c2)n1` (stereo not shown) [Compound 2, 3-(5-((3-bromophenyl)((3,4-dimethylphenyl)thio)methyl)-1,2,4-oxadiazol-3-yl)-N-methylpyridin-2-amine], the response was half-maximal at 0.65 µM (EC50). The figure for `CNc1ncccc1-c1noc(C(Sc2ccc(C)c(C)c2)c2cccc(F)c2)n1` (stereo not shown) [Compound 3, 3-(5-(((3,4-dimethylphenyl)thio)(3-fluorophenyl)methyl)-1,2,4-oxadiazol-3-yl)-N-methylpyridin-2-amine] is 0.368 µM. For `CNc1ncccc1-c1noc(C(Sc2ccc(C)c(C)c2)c2ccc(Cl)c(Cl)c2)n1` (stereo not shown) [Compound 4, 3-(5-((3,4-dichlorophenyl)((3,4-dimethylphenyl)thio)methyl)-1,2,4-oxadiazol-3-yl)-N-methylpyridin-2-amine] the value was 0.638 µM.

With `CNc1ncccc1-c1noc(C(Sc2ccc(C)c(C)c2)c2cccc(Cl)c2)n1` (stereo not shown) [Compound 5, 3-(5-((3-chlorophenyl)((3,4-dimethylphenyl)thio)methyl)-1,2,4-oxadiazol-3-yl)-N-methylpyridin-2-amine], the EC50 was 0.214 µM. As for `CNc1ncccc1-c1noc(C(SC2CCCCC2)c2cccc(C(F)(F)F)c2)n1` (stereo not shown) [Compound 6, 3-(5-((cyclohexylthio)(3-(trifluoromethyl)phenyl)methyl)-1,2,4-oxadiazol-3-yl)-N-methylpyridin-2-amine], the EC50 turned out to be 3.01 µM. For the compound `CNc1ncccc1-c1noc(C(Oc2ccc(C)c(C)c2)c2cccc(Cl)c2)n1` (stereo not shown) [Compound 7, 3-(5-((3-chlorophenyl)(3,4-dimethylphenoxy)methyl)-1,2,4-oxadiazol-3-yl)-N-methylpyridin-2-amine], the 50% effective concentration (EC50) was 1.54 µM. The figure for `CNc1ncccc1-c1noc(C(Sc2ccc(C)c(C)c2)c2ccccc2Cl)n1` (stereo not shown) [Compound 9, 3-(5-((2-chlorophenyl)((3,4-dimethylphenyl)thio)methyl)-1,2,4-oxadiazol-3-yl)-N-methylpyridin-2-amine] is 0.716 µM. For `CNc1ncccc1-c1noc(C(Nc2ccc(C)c(C)c2)c2ccccc2)n1` (stereo not shown) [Compound 10, 3-(5-(((3,4-dimethylphenyl)amino)(phenyl)methyl)-1,2,4-oxadiazol-3-yl)-N-methylpyridin-2-amine] the value was 2.39 µM; for `CNc1ncccc1-c1noc(C(Sc2ccoc2C)c2cccc(Cl)c2)n1` (stereo not shown) [Compound 13, 3-(5-((3-chlorophenyl)((2-methylfuran-3-yl)thio)methyl)-1,2,4-oxadiazol-3-yl)-N-methylpyridin-2-amine], 1.38 µM; for `CNc1ncccc1-c1noc(C(Oc2ccc(C)c(C)c2)c2ccc(Cl)cc2)n1` (stereo not shown) [Compound 15, 3-(5-((4-chlorophenyl)(3,4-dimethylphenoxy)methyl)-1,2,4-oxadiazol-3-yl)-N-methylpyridin-2-amine], 0.509 µM.

The compound `CNc1ncccc1-c1noc(C(Sc2ccc(C)cc2C)c2ccc(Cl)cc2)n1` (stereo not shown) [Compound 16, 3-(5-((4-chlorophenyl)((2,4-dimethylphenyl)thio)methyl)-1,2,4-oxadiazol-3-yl)-N-methylpyridin-2-amine] returned an EC50 of 2.02 µM.

On to `CNc1ncccc1-c1noc(C(SC2CCCCC2)c2ccc(Cl)cc2)n1` (stereo not shown) [Compound 17, 3-(5-((4-chlorophenyl)(cyclohexylthio)methyl)-1,2,4-oxadiazol-3-yl)-N-methylpyridin-2-amine], for which the midpoint of the response, the EC50, lay at 0.55 µM. The compound `CNc1ncccc1-c1noc(C(Sc2ccc(C)cc2)c2ccc(Cl)cc2)n1` (stereo not shown) [Compound 18, 3-(5-((4-chlorophenyl)(p-tolylthio)methyl)-1,2,4-oxadiazol-3-yl)-N-methylpyridin-2-amine] gave an EC50 of 3.19 µM. The compound `CNc1ncccc1-c1noc(C(Sc2ccc(OC)cc2)c2ccc(Cl)cc2)n1` (stereo not shown) [Compound 20, 3-(5-((4-chlorophenyl)((4-methoxyphenyl)thio)methyl)-1,2,4-oxadiazol-3-yl)-N-methylpyridin-2-amine] had a concentration giving a half-maximal response (EC50) of 2.56 µM. The figure for `CNc1ncccc1-c1noc(C(Oc2ccc(Cl)c(C)c2)c2ccc(Cl)cc2)n1` (stereo not shown) [Compound 21, 3-(5-((4-chloro-3-methylphenoxy)(4-chlorophenyl)methyl)-1,2,4-oxadiazol-3-yl)-N-methylpyridin-2-amine] is 2.08 µM; for `CNc1ncccc1-c1noc(C(Sc2ccc(C)c(C)c2)c2ccc(Cl)cc2)n1` (stereo not shown) [Compound 22, 3-(5-((4-chlorophenyl)((3,4-dimethylphenyl)thio)methyl)-1,2,4-oxadiazol-3-yl)-N-methylpyridin-2-amine] it is 0.241 µM.

Take `CNc1ncccc1-c1noc(C(Oc2ccc(Cl)cc2)c2ccc(Cl)cc2)n1` (stereo not shown) [Compound 23, 3-(5-((4-chlorophenoxy)(4-chlorophenyl)methyl)-1,2,4-oxadiazol-3-yl)-N-methylpyridin-2-amine]: it took 2.05 µM to reach a half-maximal effect (EC50). For `CNc1ncccc1-c1noc(C(Oc2ccc(C)cc2)c2ccc(Cl)cc2)n1` (stereo not shown) [Compound 26, 3-(5-((4-chlorophenyl)(p-tolyloxy)methyl)-1,2,4-oxadiazol-3-yl)-N-methylpyridin-2-amine] the value was 3.12 µM.

In turn, `CNc1ncccc1-c1noc(C(Sc2ccccc2)c2ccccc2)n1` (stereo not shown) [Compound 27, N-methyl-3-(5-(phenyl(phenylthio)methyl)-1,2,4-oxadiazol-3-yl)pyridin-2-amine] returned an EC50 of 1.32 µM. In the case of `CNc1ncccc1-c1noc(C(Oc2ccc(C)cc2)c2ccccc2Cl)n1` (stereo not shown) [Compound 30, 3-(5-((2-chlorophenyl)(p-tolyloxy)methyl)-1,2,4-oxadiazol-3-yl)-N-methylpyridin-2-amine], the EC50 worked out at 1.92 µM. For `CNc1ncccc1-c1noc(C(Oc2ccc(C)cc2)c2cccc(Cl)c2)n1` (stereo not shown) [Compound 32, 3-(5-((3-chlorophenyl)(p-tolyloxy)methyl)-1,2,4-oxadiazol-3-yl)-N-methylpyridin-2-amine], the EC50 stood at 1.34 µM. Turning to `CNc1ncccc1-c1noc(C(Oc2cccc(C)c2)c2ccccc2Cl)n1` (stereo not shown) [Compound 35, 3-(5-((2-chlorophenyl)(m-tolyloxy)methyll)-1,2,4-oxadiazol-3-yl)-N-methylpyridin-2-amine], a half-maximal effect (EC50) was put at 2.14 µM. Compound `CNc1ncccc1-c1noc(C(Oc2cccc(Cl)c2)c2ccccc2Cl)n1` (stereo not shown) [Compound 36, 3-(5-((3-chlorophenoxy)(2-chlorophenyl)methyl)-1,2,4-oxadiazol-3-yl)-N-methylpyridin-2-amine] showed an EC50 of 2.73 µM. `CNc1ncccc1-c1noc(C(Oc2ccc(C)c(C)c2)c2ccccc2Cl)n1` (stereo not shown) [Compound 38, 3-(5-((2-chlorophenyl)(3,4-dimethylphenoxy)methyl)-1,2,4-oxadiazol-3-yl)-N-methylpyridin-2-amine] had an EC50 of 1.65 µM.

The values above are taken from patent US8618139B2, “Oxadiazole derivatives as sphingosine 1-phosphate (S1P) receptor modulators” (Allergan, Inc., priority 2010, dated 2013).
